Positions of bridges follow the written chain, without caps; N, C: chain ends. Non-standard residues stand in square brackets, D forms with d. Residues, ends and D or L forms follow the SMILES beside them. Trp(1-CH2COOH) = N[C@@H](Cc1cn(CC(=O)O)c2ccccc12)C(=O)O; NMePhe(3-Cl) = CN[C@@H](Cc1cccc(Cl)c1)C(=O)O; 3Pal(6-NH2) = Nc1ccc(C[C@H](N)C(=O)O)cn1; NMeY = CN[C@@H](Cc1ccc(O)cc1)C(=O)O; 3Pal = N[C@@H](Cc1cccnc1)C(=O)O; 4Pal = N[C@@H](Cc1ccncc1)C(=O)O; PEG4 = NCCOCCOCCOCCOCCC(=O)O
Target: T1, human transferrin receptor (hTfR) (Homo sapiens, UniProt P02786)
T1 construct: made in house
T1 sequence (P02786 89-760 limits assumed): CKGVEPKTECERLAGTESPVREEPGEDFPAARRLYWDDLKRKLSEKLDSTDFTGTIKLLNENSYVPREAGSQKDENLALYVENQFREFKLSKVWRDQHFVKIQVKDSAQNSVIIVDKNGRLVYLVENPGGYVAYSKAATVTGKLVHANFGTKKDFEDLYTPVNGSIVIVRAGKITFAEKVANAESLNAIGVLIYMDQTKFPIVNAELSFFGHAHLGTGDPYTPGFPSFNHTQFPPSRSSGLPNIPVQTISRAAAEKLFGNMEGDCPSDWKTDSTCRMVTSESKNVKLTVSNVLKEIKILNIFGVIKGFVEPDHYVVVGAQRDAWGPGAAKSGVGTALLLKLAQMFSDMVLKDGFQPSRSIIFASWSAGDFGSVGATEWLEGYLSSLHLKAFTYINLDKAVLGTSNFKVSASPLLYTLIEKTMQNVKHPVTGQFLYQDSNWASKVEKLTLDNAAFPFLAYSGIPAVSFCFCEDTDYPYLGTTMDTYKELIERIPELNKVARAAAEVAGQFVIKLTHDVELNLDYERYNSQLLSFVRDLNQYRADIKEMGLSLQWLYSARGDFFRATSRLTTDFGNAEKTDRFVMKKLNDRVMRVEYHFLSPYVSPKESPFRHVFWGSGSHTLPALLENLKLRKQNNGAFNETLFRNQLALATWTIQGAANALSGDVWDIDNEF
Experiment: Evaluation of molecular interaction between transferrin receptor (hTfR) and peptide using surface plasmon resonance (SPR)
Format: binding
Details: surface plasmon resonance, binding to hTfR; KD class symbol; read-out: SPR (KD value)
Outline: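 KD values are derived by least-squares fitting of single-cycle kinetic sensorgrams. Peptide series (5–100 nM) flows over recombinant hTfR dimer immobilized on a Ni-NTA chip by EDC/NHS coupling, in pH 8.0 HEPES buffer containing 0.1% BSA and 1.0% DMSO.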

| Compound | Kd [nM] |
| --- | --- |
| CC[C@H](C)[C@@H]1NC(=O)[C@H](Cc2cccnc2)NC(=O)[C@H](Cc2ccc(O)cc2)NC(=O)[C@H](CC(N)=O)NC(=O)[C@H](Cc2c[nH]c3ccccc23)NC(=O)[C@H](C(C)C)NC(=O)[C@H](Cc2cccc(Cl)c2)N(C)C(=O)[C@H](C(C)C)NC(=O)[C@H](C)NC(=O)CSC[C@@H](C(=O)NCCOCCOCCOCCOCCC(N)=O)NC(=O)[C@H](Cc2ccc(O)cc2)N(C)C(=O)[C@H](Cc2ccncc2)NC(=O)[C@H](CCCNC(=N)N)NC(=O)[C@H](CCCNC(=N)N)NC(=O)[C@H]([C@@H](C)CC)NC1=O [compound 51] ({CH2CO}-AV[NMePhe(3-Cl)]VWNY[3Pal]IIRR[4Pal][NMeY]C[PEG4]-NH2; thioether N-15) | 1 to 100 |
| CC[C@H](C)[C@@H]1NC(=O)[C@H](Cc2cccnc2)NC(=O)[C@H](Cc2ccc(N)nc2)NC(=O)[C@H](CC(N)=O)NC(=O)[C@H](Cc2c[nH]c3ccccc23)NC(=O)[C@H](C(C)C)NC(=O)[C@H](Cc2cccc(Cl)c2)N(C)C(=O)[C@H](C(C)C)NC(=O)[C@H](C)NC(=O)CSC[C@@H](C(=O)NCCOCCOCCOCCOCCC(N)=O)NC(=O)[C@H](Cc2ccc(O)cc2)N(C)C(=O)[C@H](Cc2ccncc2)NC(=O)[C@H](CCCNC(=N)N)NC(=O)[C@H](CCCNC(=N)N)NC(=O)[C@H]([C@@H](C)CC)NC1=O [compound 52] ({CH2CO}-AV[NMePhe(3-Cl)]VWN[3Pal(6-NH2)][3Pal]IIRR[4Pal][NMeY]C[PEG4]-NH2; thioether N-15) | 1 to 100 |
| CC[C@H](C)[C@@H]1NC(=O)[C@H](Cc2ccc(OC)cc2)NC(=O)[C@H](Cc2ccc(N)nc2)NC(=O)[C@H](CC(N)=O)NC(=O)[C@H](Cc2c[nH]c3ccccc23)NC(=O)[C@H](C(C)C)NC(=O)[C@H](Cc2cccc(Cl)c2)N(C)C(=O)[C@H](C(C)C)NC(=O)[C@H](C)NC(=O)CSC[C@@H](C(=O)NCCOCCOCCOCCOCCC(N)=O)NC(=O)[C@H](Cc2ccc(O)cc2)N(C)C(=O)[C@H](Cc2ccncc2)NC(=O)[C@H](CCCNC(=N)N)NC(=O)[C@H](CCCNC(=N)N)NC(=O)[C@H]([C@@H](C)CC)NC1=O [compound 53] | 1 to 100 |
| CC[C@H](C)[C@@H]1NC(=O)[C@H](Cc2ccncc2)NC(=O)[C@H](Cc2ccc(O)cc2)NC(=O)[C@H](CC(N)=O)NC(=O)[C@H](Cc2c[nH]c3ccccc23)NC(=O)[C@H](C(C)C)NC(=O)[C@H](Cc2cccc(Cl)c2)N(C)C(=O)[C@H](C(C)C)NC(=O)[C@H](C)NC(=O)CSC[C@@H](C(=O)NCCOCCOCCOCCOCCC(N)=O)NC(=O)[C@H](Cc2ccc(O)cc2)N(C)C(=O)[C@H](Cc2ccncc2)NC(=O)[C@H](CCCNC(=N)N)NC(=O)[C@H](CCCNC(=N)N)NC(=O)[C@H]([C@@H](C)CC)NC1=O [compound 54] ({CH2CO}-AV[NMePhe(3-Cl)]VWNY[4Pal]IIRR[4Pal][NMeY]C[PEG4]-NH2; thioether N-15) | 1 to 100 |

Results, then the compound that gave them:

| Kd [nM] | Compound |
| --- | --- |
| 1 to 100 | CC[C@H](C)[C@@H]1NC(=O)[C@H](Cc2cccnc2)NC(=O)[C@H](Cc2ccc(N)nc2)NC(=O)[C@H](CC(N)=O)NC(=O)[C@H](Cc2cn(CC(=O)O)c3ccccc23)NC(=O)[C@H](C(C)C)NC(=O)[C@H](Cc2cccc(Cl)c2)N(C)C(=O)[C@H](C(C)C)NC(=O)[C@H](C)NC(=O)CSC[C@@H](C(=O)NCCOCCOCCOCCOCCC(N)=O)NC(=O)[C@H](Cc2ccc(O)cc2)N(C)C(=O)[C@H](Cc2ccncc2)NC(=O)[C@H](CCCNC(=N)N)NC(=O)[C@H](CCCNC(=N)N)NC(=O)[C@H]([C@@H](C)CC)NC1=O [compound 49] ({CH2CO}-AV[NMePhe(3-Cl)]V[Trp(1-CH2COOH)]N[3Pal(6-NH2)][3Pal]IIRR[4Pal][NMeY]C[PEG4]-NH2; thioether N-15) |
| 1 to 100 | CC[C@H](C)[C@@H]1NC(=O)[C@H](Cc2ccc(OC)cc2)NC(=O)[C@H](Cc2ccc(N)nc2)NC(=O)[C@H](CC(N)=O)NC(=O)[C@H](Cc2cn(CC(=O)O)c3ccccc23)NC(=O)[C@H](C(C)C)NC(=O)[C@H](Cc2cccc(Cl)c2)N(C)C(=O)[C@H](C(C)C)NC(=O)[C@H](C)NC(=O)CSC[C@@H](C(=O)NCCOCCOCCOCCOCCC(N)=O)NC(=O)[C@H](Cc2ccc(O)cc2)N(C)C(=O)[C@H](Cc2ccncc2)NC(=O)[C@H](CCCNC(=N)N)NC(=O)[C@H](CCCNC(=N)N)NC(=O)[C@H]([C@@H](C)CC)NC1=O [compound 50] |

From patent publication US20260116920A1, “HUMAN TRANSFERRIN RECEPTOR BINDING PEPTIDE” (PEPTIDREAM INC., priority 2021, published 2026)
